Results from patent US11344571B2, “NO containing compositions” (University Court of the University of St. Andrews, priority 2015, dated 2022).
Counter-ions that a name gives are not always drawn.

Tests used:
[1] = NO release triggered by constant flow of humid nitrogen gas (11% RH), chemiluminescence nitric oxide analyser; assay type: physicochemical; conditions: humid nitrogen 11% RH; for total nitric oxide released: in 19 hr
Text: The release of NO from the sample was first triggered by passing a constant flow of humid nitrogen gas (11% RH) over it. The amount of NO released over time was detected using a Sievers NOA 280i chemiluminescence nitric oxide analyser until the emission of NO reached a level lower than 20 ppb.

[2] = NO release from NO-loaded sample submersed in deionized water, chemiluminescence analysis; assay type: physicochemical
Description: The NO-loaded sample was submersed under 5 ml of deionized water in a sealed chamber connected to an NO analyser. A constant flow of nitrogen was bubbled through the suspension while measuring the concentration of NO present in the chamber atmosphere.
The release of NO from the sample triggered by the water was measured in ppm and ppb over time until the level of NO dropped below 20 ppb. The initial burst release of NO reached 40 ppm. The sample released up to 0.035 mmol/g of nitric oxide in 7 hrs (FIG. 5A).

[3] = NO release triggered by UV light (300-400 nm), chemiluminescence analysis
Description: After the NO release was completed the sample was kept on the bench at room temperature, exposed to air and humidity for over 48 hr.
The release of NO over time was recorded using the same analyser described above.

[4] = Gravimetric NO adsorption/desorption isotherms at 298K; assay type: physicochemical
Description: The nitric oxide adsorption/desorption profiles for two further chlorhexidine diacetate samples (25 mg) were collected using a bespoke gravimetric adsorption system. Each sample was exposed to high vacuum at a pressure of 1×10^−4 mbar overnight until no further mass loss was observed. The samples were cooled to 298K using a water bath (temperature accuracy of 0.02K).
For one sample, shown in the outer plot of FIGS. 2A-2B, NO was introduced in increasing increments. After each dose of NO, the mass of the sample was allowed to stabilise (indicating completion of adsorption) before the next addition was made. This process was continued until the introduced pressure of NO was equal to atmospheric pressure. The second sample was exposed to one atmosphere of NO in a single step, and its mass allowed to equilibrate. Data is shown in the inner plot of FIGS. 2A-2B. The desorption profiles of both samples, shown in FIGS. 2A-2B, were measured by reducing the pressure in increments to a final value of 2×10^−2 mbar.

N=C(NCCCCCCNC(=N)NC(=N)Nc1ccc(Cl)cc1)NC(=N)Nc1ccc(Cl)cc1 [chlorhexidine diacetate]
initial burst of release of NO (peak) [1]: 512 PPM | total NO release ([1]; in 18 hrs): 0.03 mmol/g | total nitric oxide released [1]: up to 0.042 mmol/g | initial burst release of NO (peak) ([2]; 100 mg under 5 ml deionized water, nitrogen bubbled): 40 ppm | total nitric oxide released ([2]; in water, in 7 hrs): up to 0.035 mmol/g | UV-triggered immediate burst of NO release ([3]; burst from 30 ppb, after over 48 hr on bench in air and humidity): 105 ppb | maximum NO on continuous UV exposure ([3]; continuous exposure about 5 mins, after over 48 hr storage in air): around 120 ppb | NO release level sustained under continuous UV exposure ([3]; for more than 4 hrs): over 70 ppb | maximum NO on continuous UV exposure ([3]; sample in water, immediately after water-triggered release, about 10 minutes): around 1000 ppb | maximum NO adsorbed, molecules of NO per molecule of chlorhexidine ([4]; NO pressure up to atmospheric): 0.55 molecules of NO per molecule of chlorhexidine | maximum NO adsorbed ([4]; NO pressure up to atmospheric, gravimetric): ~0.9 mmole of NO per gram | level of stored NO after reapplication of vacuum, molecules per molecule of chlorhexidine ([4]; desorption to 2x10^-2 mbar): circa 0.25 molecules per molecule of chlorhexidine | level of stored NO after reapplication of vacuum ([4]; desorption to 2x10^-2 mbar, both samples): ~0.4 mmole per gram

N=C(NCCCCCCNC(=N)NC(=N)Nc1ccc(Cl)cc1)NC(=N)Nc1ccc(Cl)cc1 [chlorhexidine dihydrochloride]
duration of initial burst release of NO on humidity [1]: a couple of minutes | UV-triggered burst of NO (peak) ([3]; after 2 days on bench in humid air): up to 150 ppb | NO level to which UV-triggered burst dropped ([3]; over 1 hr, after 2 days in humid air): 75 ppb

O=C(O)c1cn(C2CC2)c2cc(N3CCNCC3)c(F)cc2c1=O [ciprofloxacin]
duration of initial burst release of NO on humidity [1]: a couple of minutes

NS(=O)(=O)c1cc(C(=O)O)c(NCc2ccco2)cc1Cl [furosemide]
initial burst of release of NO (peak) [1]: 512 ppm | total nitric oxide released [1]: up to 0.042 mmol/g
